Reference: paper PMC8111447 (Frontiers in Pharmacology, 2021)

How the values were obtained:
[1] = system: NCI-H1975 (EGFR^L858R/T790M); assay: Cell proliferation assay (CTG, 72 h); type: cell-based; conditions: Homo sapiens, NCI-H1975 cells, mean ± SD, n = 3
Method: (§1) Human lung cancer cell lines (NCI-H1975, H3255 and A431) were obtained from the American Type Culture Collection (ATCC), while PC-9 cell line was supplied by the European Collection of Authenticated Cell Cultures (ECACC). For in vivo implantation, NCI-H1975, H3255 and PC-9 cells were cultured in RPMI1640 (Invitrogen) supplemented with 10% v/v fetal calf serum (Sigma-Aldrich) and 2 mmol/L L-glutamine (Invitrogen). A431 cells were cultured in DMEM (Invitrogen) supplemented with 10% v/v fetal calf serum and 2 mmol/L v/v L-glutamine. All cell lines were then cultured in a humidified incubator with 5% CO2 at 37°C.
(§2) Test compounds were dissolved in DMSO as a 10 mmol/L stock solution. The initial concentration of compounds were 10 μmol/L and the 3-fold dilution was nine times. […] Plate was shaked for 2 min and the mixture was incubated at room temperature for 10 min.
(§3) The half-maximal inhibition concentration (IC50) values were processed by GraphPad Prism7 (GraphPad Software; La Jolla, CA).

A431 (EGFR^WT) = assay: Cell proliferation assay (CTG, 72 h); type: cell-based; conditions: Homo sapiens, A-431, A431 cells, mean ± SD, n = 3
Method: as §1, §2, §3

[2] = system: EGFR phosphorylation (pY1068) in NCI-H1975 cells; assay: Phosphorylation of EGFR assay, time course; type: cell-based, human; conditions: 0.1 μmol/L, 1-10 h
Method: Cells (NCI-H1975/PC-9/[…]) were seeded into a 384-well plate (10,000 cells/well), grown for 24 h, and then treated with different test compounds (0.1 μmol/L) for 1, 2, 4, 6, 8 and 10 h. A431 cells were stimulated with 100 ng/ml EGF after incubation for 10 min. Cells were washed with ice-cold HBSS before extraction with 25 μl cell lysis buffer. Phosphorylation of EGFR was measured using a sandwich ELISA assay with phospho-specific EGFR (pY1068) antibodies [AlphaLISA SureFire p-EGF Receptor (Tyr1068) Assay Kit, PerkinElmer].

PC-9 (EGFR^d746–750) = assay: Cell proliferation assay (CTG, 72 h); type: cell-based, human; conditions: for IC50: Homo sapiens, PC-9 cells, 72 h, mean ± SD, n = 3
Method: as §1, §2, §3

H3255 (EGFR^L858R) = assay: Cell proliferation assay (CTG, 72 h); type: cell-based, human; conditions: for IC50: Homo sapiens, NCI-H3255, H3255 cells, 72 h, mean ± SD, n = 3
Method: as §1, §2, §3

Flt3 (D835Y) (h) = biological target: T1, Flt3 (D835Y) (h) (Homo sapiens, UniProt P36888, D835Y); assay: Kinase panel (Eurofins); type: biochemical; conditions: n = 2; for inhibition at 1 µM: at 1 μmol/L; for IC50: read-out: IC50 kinase inhibition
T1 construct: purchased Eurofins
T1 sequence (P36888 27-993 D835Y): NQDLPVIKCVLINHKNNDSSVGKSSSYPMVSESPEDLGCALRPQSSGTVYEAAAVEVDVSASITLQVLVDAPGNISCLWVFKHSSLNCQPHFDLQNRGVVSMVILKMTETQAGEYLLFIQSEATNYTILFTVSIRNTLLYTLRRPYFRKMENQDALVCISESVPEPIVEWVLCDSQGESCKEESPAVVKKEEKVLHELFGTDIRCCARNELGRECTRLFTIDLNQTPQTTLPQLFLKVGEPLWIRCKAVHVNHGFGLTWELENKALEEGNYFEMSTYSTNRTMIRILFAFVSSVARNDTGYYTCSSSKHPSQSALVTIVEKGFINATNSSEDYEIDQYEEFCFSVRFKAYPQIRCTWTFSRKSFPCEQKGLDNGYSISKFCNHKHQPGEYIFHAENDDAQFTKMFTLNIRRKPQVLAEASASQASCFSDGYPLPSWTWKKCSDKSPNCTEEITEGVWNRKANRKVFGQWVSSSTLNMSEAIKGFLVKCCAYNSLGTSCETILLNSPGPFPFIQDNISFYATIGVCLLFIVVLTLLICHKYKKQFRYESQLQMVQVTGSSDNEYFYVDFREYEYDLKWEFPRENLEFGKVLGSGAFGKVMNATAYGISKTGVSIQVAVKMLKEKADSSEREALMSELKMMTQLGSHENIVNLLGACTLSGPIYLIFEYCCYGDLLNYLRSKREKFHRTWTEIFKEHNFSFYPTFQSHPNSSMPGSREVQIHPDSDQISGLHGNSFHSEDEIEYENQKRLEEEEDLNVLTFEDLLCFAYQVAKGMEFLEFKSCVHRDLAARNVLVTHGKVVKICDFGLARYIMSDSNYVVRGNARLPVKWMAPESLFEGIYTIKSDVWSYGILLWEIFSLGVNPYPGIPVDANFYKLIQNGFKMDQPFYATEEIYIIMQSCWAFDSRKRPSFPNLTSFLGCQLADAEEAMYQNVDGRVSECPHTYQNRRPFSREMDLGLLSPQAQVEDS
Text: (§4) These receptors have a methionine gatekeeper in their kinase domains, and are related to hyperglycemia in other clinical trials of EGFR TKI, such as Co-1686.

Pyk2(h) = biological target: T2, Pyk2(h) (Homo sapiens, UniProt Q14289); assay: Kinase panel (Eurofins); type: biochemical; conditions: n = 2; for inhibition at 1 µM: at 1 μmol/L; for IC50: read-out: IC50 kinase inhibition
T2 construct: purchased Eurofins
T2 sequence (Q14289 whole entry): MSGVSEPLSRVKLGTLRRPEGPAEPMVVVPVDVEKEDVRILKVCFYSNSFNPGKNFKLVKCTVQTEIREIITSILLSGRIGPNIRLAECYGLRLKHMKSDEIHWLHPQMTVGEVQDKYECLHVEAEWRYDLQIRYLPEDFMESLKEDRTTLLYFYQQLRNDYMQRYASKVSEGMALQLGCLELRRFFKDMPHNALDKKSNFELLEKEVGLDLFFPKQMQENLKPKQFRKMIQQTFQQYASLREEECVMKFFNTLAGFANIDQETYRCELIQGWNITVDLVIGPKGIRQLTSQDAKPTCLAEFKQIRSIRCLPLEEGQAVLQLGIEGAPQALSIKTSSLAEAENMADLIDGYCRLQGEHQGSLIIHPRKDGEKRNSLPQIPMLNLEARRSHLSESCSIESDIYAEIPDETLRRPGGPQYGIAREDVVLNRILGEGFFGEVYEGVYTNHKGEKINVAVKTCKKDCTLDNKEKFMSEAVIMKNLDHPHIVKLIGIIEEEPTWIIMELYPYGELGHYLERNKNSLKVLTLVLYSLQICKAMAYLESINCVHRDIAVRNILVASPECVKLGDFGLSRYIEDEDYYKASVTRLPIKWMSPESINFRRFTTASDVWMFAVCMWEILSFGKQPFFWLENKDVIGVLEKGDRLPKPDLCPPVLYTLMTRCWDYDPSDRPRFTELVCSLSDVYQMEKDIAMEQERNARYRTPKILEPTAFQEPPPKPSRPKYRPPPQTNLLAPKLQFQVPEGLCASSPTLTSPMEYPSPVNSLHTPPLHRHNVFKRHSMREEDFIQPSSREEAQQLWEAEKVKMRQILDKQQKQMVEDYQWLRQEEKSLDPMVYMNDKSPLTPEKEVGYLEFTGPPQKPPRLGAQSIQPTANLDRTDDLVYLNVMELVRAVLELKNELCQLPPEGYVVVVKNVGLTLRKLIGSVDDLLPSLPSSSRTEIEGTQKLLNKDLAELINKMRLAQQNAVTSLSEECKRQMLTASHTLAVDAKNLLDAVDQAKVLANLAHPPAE
Text: as §4

ErbB2(h) = biological target: T3, ErbB2(h) (Homo sapiens, UniProt P04626); assay: Kinase panel (Eurofins); type: biochemical; conditions: n = 2; for inhibition at 1 µM: at 1 μmol/L; for IC50: read-out: IC50 kinase inhibition
T3 construct: purchased Eurofins
Text: as §4

PTK5(h) = biological target: T4, PTK5(h) (Homo sapiens, UniProt P42685); assay: Kinase panel (Eurofins); type: biochemical; conditions: n = 2; for inhibition at 1 µM: at 1 μmol/L; for IC50: read-out: IC50 kinase inhibition
T4 construct: purchased Eurofins
T4 sequence (P42685 whole entry): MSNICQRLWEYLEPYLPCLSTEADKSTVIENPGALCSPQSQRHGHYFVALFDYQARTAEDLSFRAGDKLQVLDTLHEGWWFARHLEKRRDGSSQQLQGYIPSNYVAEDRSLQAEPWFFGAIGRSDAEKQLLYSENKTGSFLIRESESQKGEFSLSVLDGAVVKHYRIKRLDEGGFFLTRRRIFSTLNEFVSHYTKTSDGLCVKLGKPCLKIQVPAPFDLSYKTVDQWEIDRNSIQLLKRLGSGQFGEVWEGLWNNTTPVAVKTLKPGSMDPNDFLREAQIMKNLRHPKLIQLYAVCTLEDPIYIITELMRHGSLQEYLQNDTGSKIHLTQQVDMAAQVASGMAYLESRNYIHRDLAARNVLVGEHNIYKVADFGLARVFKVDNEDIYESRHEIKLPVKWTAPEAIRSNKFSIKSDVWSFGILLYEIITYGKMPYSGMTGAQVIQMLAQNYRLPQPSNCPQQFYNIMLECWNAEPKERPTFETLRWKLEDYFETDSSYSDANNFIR
Text: as §4

LTK(h) = biological target: T5, LTK(h) (Homo sapiens, UniProt P29376); assay: Kinase panel (Eurofins); type: biochemical; conditions: n = 2; for inhibition at 1 µM: at 1 μmol/L; for IC50: read-out: IC50 kinase inhibition
T5 construct: purchased Eurofins
Text: as §4

LOK(h) = biological target: T6, LOK(h) (Homo sapiens, UniProt O94804); assay: Kinase panel (Eurofins); type: biochemical; conditions: n = 2; for inhibition at 1 µM: at 1 μmol/L; for IC50: read-out: IC50 kinase inhibition
T6 construct: purchased Eurofins
T6 sequence (O94804 whole entry): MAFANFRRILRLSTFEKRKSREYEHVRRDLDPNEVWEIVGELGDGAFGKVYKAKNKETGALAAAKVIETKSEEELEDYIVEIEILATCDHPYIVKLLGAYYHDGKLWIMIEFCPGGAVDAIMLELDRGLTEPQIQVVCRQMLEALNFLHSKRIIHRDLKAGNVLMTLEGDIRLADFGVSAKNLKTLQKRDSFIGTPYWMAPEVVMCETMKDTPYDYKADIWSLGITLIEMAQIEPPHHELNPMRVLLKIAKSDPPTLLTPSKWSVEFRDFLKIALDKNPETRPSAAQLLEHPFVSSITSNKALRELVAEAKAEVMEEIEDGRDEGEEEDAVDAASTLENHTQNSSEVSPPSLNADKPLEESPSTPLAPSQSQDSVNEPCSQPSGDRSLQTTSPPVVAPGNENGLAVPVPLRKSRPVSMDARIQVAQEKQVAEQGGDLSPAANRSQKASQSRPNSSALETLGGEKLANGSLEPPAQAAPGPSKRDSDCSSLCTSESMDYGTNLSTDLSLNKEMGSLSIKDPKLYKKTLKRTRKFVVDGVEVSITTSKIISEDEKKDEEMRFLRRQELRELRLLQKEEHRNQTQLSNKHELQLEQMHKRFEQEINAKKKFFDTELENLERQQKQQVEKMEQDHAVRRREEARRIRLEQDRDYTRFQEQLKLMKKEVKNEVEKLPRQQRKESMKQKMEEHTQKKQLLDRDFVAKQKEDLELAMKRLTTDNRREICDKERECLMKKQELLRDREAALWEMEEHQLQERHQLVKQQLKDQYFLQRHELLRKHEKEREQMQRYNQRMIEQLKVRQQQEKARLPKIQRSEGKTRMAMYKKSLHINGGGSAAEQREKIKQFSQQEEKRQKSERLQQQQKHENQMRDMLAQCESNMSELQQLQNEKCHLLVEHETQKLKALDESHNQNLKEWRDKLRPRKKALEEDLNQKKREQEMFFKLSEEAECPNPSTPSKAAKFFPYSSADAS
Text: as §4

ALK(h) = biological target: T7, ALK(h) (Homo sapiens, UniProt Q9UM73); assay: Kinase panel (Eurofins); type: biochemical; conditions: n = 2; for inhibition at 1 µM: at 1 μmol/L; for IC50: read-out: IC50 kinase inhibition
T7 construct: purchased Eurofins
T7 sequence (Q9UM73 19-1620): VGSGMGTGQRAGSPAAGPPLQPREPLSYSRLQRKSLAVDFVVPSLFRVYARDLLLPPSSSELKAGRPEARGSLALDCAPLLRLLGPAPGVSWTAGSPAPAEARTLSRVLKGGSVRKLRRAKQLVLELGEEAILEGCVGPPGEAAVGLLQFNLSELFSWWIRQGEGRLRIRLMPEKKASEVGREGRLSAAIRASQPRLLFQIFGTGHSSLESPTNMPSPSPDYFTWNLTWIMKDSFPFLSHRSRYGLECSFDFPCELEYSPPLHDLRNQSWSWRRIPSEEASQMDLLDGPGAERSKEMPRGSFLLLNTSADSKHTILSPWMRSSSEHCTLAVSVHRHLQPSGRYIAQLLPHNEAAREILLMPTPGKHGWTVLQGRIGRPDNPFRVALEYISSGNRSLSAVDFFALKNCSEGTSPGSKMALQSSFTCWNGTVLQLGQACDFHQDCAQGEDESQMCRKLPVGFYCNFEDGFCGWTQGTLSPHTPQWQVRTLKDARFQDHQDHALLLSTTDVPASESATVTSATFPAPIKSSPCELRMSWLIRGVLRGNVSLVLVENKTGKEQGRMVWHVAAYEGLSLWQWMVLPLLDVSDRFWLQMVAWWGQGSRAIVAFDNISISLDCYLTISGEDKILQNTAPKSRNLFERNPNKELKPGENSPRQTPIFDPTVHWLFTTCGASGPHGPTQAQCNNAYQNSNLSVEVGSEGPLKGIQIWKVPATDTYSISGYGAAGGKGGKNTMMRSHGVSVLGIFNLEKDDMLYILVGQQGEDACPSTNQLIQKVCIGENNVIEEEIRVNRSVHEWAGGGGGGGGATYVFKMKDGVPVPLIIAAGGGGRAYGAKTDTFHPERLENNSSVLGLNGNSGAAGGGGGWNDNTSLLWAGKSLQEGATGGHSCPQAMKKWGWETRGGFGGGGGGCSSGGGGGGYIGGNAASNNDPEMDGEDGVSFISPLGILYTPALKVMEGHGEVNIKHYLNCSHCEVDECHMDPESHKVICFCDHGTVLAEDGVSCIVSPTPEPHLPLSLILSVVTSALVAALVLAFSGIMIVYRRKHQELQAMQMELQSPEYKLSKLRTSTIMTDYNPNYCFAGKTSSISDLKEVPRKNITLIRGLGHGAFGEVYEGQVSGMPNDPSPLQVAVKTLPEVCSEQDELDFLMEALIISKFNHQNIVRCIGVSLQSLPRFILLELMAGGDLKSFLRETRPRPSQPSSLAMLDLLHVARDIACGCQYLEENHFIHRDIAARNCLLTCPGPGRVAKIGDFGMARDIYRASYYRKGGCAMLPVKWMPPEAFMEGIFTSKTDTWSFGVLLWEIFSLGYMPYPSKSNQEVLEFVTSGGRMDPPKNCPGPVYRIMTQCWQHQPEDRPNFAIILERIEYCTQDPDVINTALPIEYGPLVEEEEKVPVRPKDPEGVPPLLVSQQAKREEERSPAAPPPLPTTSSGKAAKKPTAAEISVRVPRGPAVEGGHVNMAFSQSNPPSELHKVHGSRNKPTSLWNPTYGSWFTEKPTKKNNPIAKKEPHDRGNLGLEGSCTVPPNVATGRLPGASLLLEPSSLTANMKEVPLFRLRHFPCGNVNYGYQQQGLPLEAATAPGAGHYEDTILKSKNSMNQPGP
Text: as §4

ACK1(h) = biological target: T8, ACK1(h) (Homo sapiens, UniProt Q07912); assay: Kinase panel (Eurofins); type: biochemical; conditions: n = 2; for inhibition at 1 µM: at 1 μmol/L; for IC50: read-out: IC50 kinase inhibition
T8 construct: purchased Eurofins
T8 sequence (Q07912 whole entry): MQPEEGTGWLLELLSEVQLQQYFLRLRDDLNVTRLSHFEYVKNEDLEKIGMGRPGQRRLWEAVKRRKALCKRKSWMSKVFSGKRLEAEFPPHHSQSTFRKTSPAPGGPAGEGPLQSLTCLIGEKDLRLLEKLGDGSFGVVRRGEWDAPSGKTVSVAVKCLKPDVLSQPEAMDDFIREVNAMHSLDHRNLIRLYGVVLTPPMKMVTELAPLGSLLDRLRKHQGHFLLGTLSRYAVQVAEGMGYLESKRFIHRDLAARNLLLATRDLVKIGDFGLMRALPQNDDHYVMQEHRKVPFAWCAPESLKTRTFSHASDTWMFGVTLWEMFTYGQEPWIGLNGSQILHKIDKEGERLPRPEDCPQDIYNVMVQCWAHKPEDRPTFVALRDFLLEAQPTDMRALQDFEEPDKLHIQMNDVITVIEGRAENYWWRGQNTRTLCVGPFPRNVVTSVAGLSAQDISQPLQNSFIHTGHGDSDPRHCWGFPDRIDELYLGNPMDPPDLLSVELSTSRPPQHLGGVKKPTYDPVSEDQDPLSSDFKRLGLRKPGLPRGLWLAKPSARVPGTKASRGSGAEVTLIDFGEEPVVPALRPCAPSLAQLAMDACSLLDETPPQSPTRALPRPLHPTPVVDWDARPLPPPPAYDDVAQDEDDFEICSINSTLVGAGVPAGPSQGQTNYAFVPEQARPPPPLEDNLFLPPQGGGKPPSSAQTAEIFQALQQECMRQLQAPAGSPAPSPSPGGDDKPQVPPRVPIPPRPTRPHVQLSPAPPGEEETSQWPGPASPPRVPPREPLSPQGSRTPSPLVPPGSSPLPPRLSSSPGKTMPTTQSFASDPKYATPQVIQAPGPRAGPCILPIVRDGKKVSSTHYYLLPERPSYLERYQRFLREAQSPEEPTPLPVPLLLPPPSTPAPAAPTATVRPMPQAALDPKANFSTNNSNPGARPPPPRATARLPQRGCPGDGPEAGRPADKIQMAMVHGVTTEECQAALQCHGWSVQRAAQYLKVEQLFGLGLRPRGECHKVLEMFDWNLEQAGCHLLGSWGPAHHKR
Text: as §4

IC50 [1] [nM]	IC50 (A431 (EGFR^WT)) [nM]	IC50 (PC-9 (EGFR^d746–750)) [nM]	IC50 (H3255 (EGFR^L858R)) [nM]	inhibition at 1 µM (Flt3 (D835Y) (h)) [%]	IC50 (Flt3 (D835Y) (h)) [nM]	inhibition at 1 µM (Pyk2(h)) [%]	IC50 (Pyk2(h)) [nM]	inhibition at 1 µM (ErbB2(h)) [%]	IC50 (ErbB2(h)) [nM]	inhibition at 1 µM (PTK5(h)) [%]	IC50 (PTK5(h)) [nM]	inhibition at 1 µM (LTK(h)) [%]	IC50 (LTK(h)) [nM]	inhibition at 1 µM (LOK(h)) [%]	IC50 (LOK(h)) [nM]	inhibition at 1 µM (ALK(h)) [%]	IC50 (ALK(h)) [nM]	inhibition at 1 µM (ACK1(h)) [%]	Structure (SMILES)	inhibitory effect on EGFR phosphorylation [2]	further results
6.56 ± 1.43	704 ± 92.5	15 ± 0.65	17.1 ± 0.55	99	41	83	227	83	197	64	736	93	61	72	593	92	53	90	C=CC(=O)Nc1cc(Nc2nccc(-c3c4n(c5ccccc35)CCCC4)n2)c(OC)cc1N(C)CCNC [Imp3]	stronger inhibitory effects on EGFR phosphorylation compared to osimertinib	IC50 (ACK1(h)): 124 nM
3.93 ± 1.12	779 ± 135	7.63 ± 0.18	9.39 ± 0.88	86	78	73	228	72	55	39	644	83	81	24	1950	85	79	81	C=CC(=O)Nc1cc(Nc2nccc(-c3c4n(c5ccccc35)CCCC4)n2)c(OC)cc1N(C)CCN(C)C [SH-1028]	stronger inhibitory effects on EGFR phosphorylation compared to osimertinib	fold more sensitive than the inhibition of wild-type EGFR in A431 cells (PC-9 (EGFR^d746–750); PC-9 vs A431, proliferation IC50): ~102 fold; fold more sensitive than the inhibition of wild-type EGFR in A431 cells (H3255 (EGFR^L858R); H3255 vs A431, proliferation IC50): ~83 fold; IC50 (ACK1(h)): 86 nM
